In PMC6003606 (Chemical Science, 2016):
Read-outs that look alike come from different tables or passages of the source.

Tests used:
A375 = assay: Cytotoxicity, 72 h exposure, melanoma; format: cell-based, human; conditions: A375, 72 h exposure
HCT-15 = assay: Cytotoxicity, 72 h exposure, colon carcinoma; format: cell-based, human; conditions: HCT-15, 72 h exposure
A549 = assay: Cytotoxicity, 72 h exposure, lung carcinoma; format: cell-based, human; conditions: A549, 72 h exposure
A2780 = assay: Cytotoxicity, 72 h exposure, cisplatin-sensitive ovarian cancer cells; format: cell-based, human; conditions: A2780, 72 h exposure
PC3 = assay: Cytotoxicity, 72 h exposure, prostate carcinoma; format: cell-based, human; conditions: PC3, 72 h exposure
A2780cisR = assay: Cytotoxicity, 72 h exposure, cisplatin-resistant ovarian cancer cells; format: cell-based, human
A498 = assay: Cytotoxicity, 72 h exposure, kidney carcinoma; format: cell-based, human; conditions: A498, 72 h exposure
MCF-7 = assay: Cytotoxicity, 72 h exposure, breast carcinoma; format: cell-based, human; conditions: MCF-7, 72 h exposure
[1] = tested on: cancer cell lines (panel); assay: Cytotoxicity averaged or compared over the cancer cell line panel; format: cell-based, human; conditions: for IC50: read-out: average IC50
BxPC3 = assay: Cytotoxicity, 72 h exposure, pancreatic carcinoma; format: cell-based, human; conditions: BxPC3, 72 h exposure
[2] = tested on: HDAC activity in MCF-7 cells; conditions: free ligand; reported values, no reference given; cited from earlier work
[3] = average over the seven cancer cell lines
[4] = average over five cancer cell lines

Compound | IC50 (A375) [µM] | IC50 (HCT-15) [µM] | IC50 (A549) [µM] | IC50 (A2780) [µM] | IC50 (PC3) [µM] | IC50 (A2780cisR) [µM] | IC50 (A498) [µM] | IC50 (MCF-7) [µM] | IC50 [1, 3] [µM] | IC50 (BxPC3) [µM] | IC50 ([1]; over the nine cell lines) [µM] | IC50 of extracellular ligand for cellular HDAC activity [2] | cytotoxic IC50 of uncoordinated HDAC inhibitor ligands ([1]; tested cancer cell lines) | IC50 [1, 4] [µM]
O=C1[O][Pt]2([NH][C@@H]3CCCC[C@H]3[NH]2)[O]C1=O [oxaliplatin] | 6.3 ± 1.11 | 1.15 ± 0.43 | 1.46 ± 0.31 | 0.52 ± 0.27 | 5.24 ± 0.86 | 4.2 ± 1.6 | 7.94 ± 1.04 | 3.36 ± 0.2 | 4.2 | 4.15 ± 0.93 | – | – | – | –
N.N.[Cl][Pt][Cl] [cisplatin] | 4.03 ± 0.95 | 11.3 ± 1.06 | 8.35 ± 0.87 | 2.8 ± 0.2 | 2.25 ± 0.82 | 13.8 ± 0.2 | 17.5 ± 1.21 | 17.4 ± 0.2 | 10.3 | 11.4 ± 1.14 | 9.9 | – | – | –
CCCC(CCC)C(=O)O [VPA, valproate] | – | – | – | – | – | – | – | – | – | – | – | mM range | millimolar range | –
[Pt(DACH)(OH)2(ox)] | 6.85 ± 1.55 | 18.9 ± 3.18 | 26.1 ± 2.89 | – | 5.85 ± 1.08 | – | 24.4 ± 5.35 | 19.9 ± 1.41 | – | 14.3 ± 2.09 | – | – | – | 13.2
N.N.[Cl-].[Cl-].[OH-].[OH-].[Pt+4] [IX, ctc-[Pt(NH3)2(OH)2Cl2]] | 1.93 ± 0.75 | 15.3 ± 3.23 | 22.5 ± 4.54 | – | 2.98 ± 1.35 | – | 22 ± 0.85 | 11.5 ± 3.71 | – | 6.23 ± 1.47 | – | – | – | 7
